Experimental data reported in patent publication US20250074943A1, “DLL3 BINDING PEPTIDES AND USES THEREOF” (AMGEN INC., priority 2021, published 2025).
pIC50, pKd: −log10 of the molar value. Numbered stars: 1 amine (or outer) side, 2 acyl side, 3 side chain; on linkers, the order of the positions; unused ones are H or OH. Bridge positions count the residues as written; N and C are the ends. Square brackets hold non-standard residues; d marks the D form. Ends that are not written are not given here. Peptide text beside a SMILES is read from it. * marks the point of attachment. X6 = CCOCCOCCOCCOCc1cn(CCCC[C@@H]2CC(=O)C(CC(=O)NCCCOCCOCCOCCCN*)NC2=O)nn1; X11 = NCCCC[C@H](NC(=O)CCC(=O)NCCCOCCOCCOCCCN*)C(N)=O; X4 = CC(C(=O)CN[*:1])[C@@H](C(=O)[*:2])[C@H](C)O; X5 = O=C([C@@H](CC1=CCc2ccccc21)N[*:1])[*:2]; Isobutyryl = CC(C)C(=O)*

Legend:
[1] = molecular target: T1, DLL3 (Homo sapiens, UniProt Q9NYJ7); assay: Binding of peptides with linkers and/or fluorescent agent to DLL3 (BLI, SPR; Table 6)
T1 construct: The recombinant DLL3 ectodomain (rhDLL3-Fc) was biotinylated; Fc
T1 sequence (Q9NYJ7 27-492 limits assumed): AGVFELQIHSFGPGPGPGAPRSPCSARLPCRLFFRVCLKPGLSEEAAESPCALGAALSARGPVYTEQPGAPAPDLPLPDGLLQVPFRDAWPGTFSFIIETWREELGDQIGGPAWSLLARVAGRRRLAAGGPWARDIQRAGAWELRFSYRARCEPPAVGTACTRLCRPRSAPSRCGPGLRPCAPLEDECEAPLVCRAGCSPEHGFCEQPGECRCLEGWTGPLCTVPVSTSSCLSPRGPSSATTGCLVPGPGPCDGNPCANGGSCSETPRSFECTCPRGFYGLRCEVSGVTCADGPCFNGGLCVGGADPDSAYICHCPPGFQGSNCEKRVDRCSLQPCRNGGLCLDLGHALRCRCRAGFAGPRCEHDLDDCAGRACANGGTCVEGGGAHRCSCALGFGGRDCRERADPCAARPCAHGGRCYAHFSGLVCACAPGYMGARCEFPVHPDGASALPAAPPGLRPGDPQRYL
Description: (§1) Binding kinetic assays were performed using Bio-layer interferometry (BLI) technology. The recombinant DLL3 ectodomain (rhDLL3-Fc) was biotinylated using EZ-Link Sulfo-NHS-LC-LC-Biotin Kit according to the manufacturer's protocol (Pierce by Thermo Fisher Scientific). The recombinant protein was incubated with an excess of NHS-LC-LC Biotin ester, in a molar ratio of 1:3 (protein: biotin), at 25° C. for 90 min. The un-reacted biotin ester was removed by subsequent buffer exchange on 0.5 ml Zeba spin desalting columns 7K MWCO (Pierce by Thermo Fisher Scientific).
The off-rate screening of the peptides was done using a Biacore T200 instrument (Cytiva, Sweden). […] Peptides were diluted at 300 nM in PBS-P+1× buffer (Cytiva, Sweden) supplemented with 1% DMSO and 0.1% BSA, then injected over the ligand for five minutes at 30 μl/min, finally dissociation allowed for 1 h. Sensorgrams were analyzed by Biacore T200 Evaluation Software 3.0 (Cytiva, Sweden): specific binding was obtained by subtracting unspecific binding to naked biosensors and a zero analyte concentration made of binding assay buffer (double referencing). Kinetic parameters of koff were measured using a global fitting according to 1:1 Langmuir binding isotherm equation.

[2] = molecular target: T2, rhDLL3-Fc (Homo sapiens, UniProt Q9NYJ7); assay: SPR binding / off-rate screening (Biacore T200); details: Table 7, curve fitting of SPR sensorgrams; for koff: read-out: koff; for kon: read-out: kon
T2 construct: The recombinant DLL3 ectodomain (rhDLL3-Fc) was biotinylated; Fc
T2 sequence (Q9NYJ7 27-492 limits assumed): T1 sequence (Q9NYJ7 27-492 limits assumed)
Description: as §1, with “Binding kinetic assays were performed using Bio-layer interferometry (BLI) technology.” left out
The off-rate screening of the peptides was done using a Biacore T200 instrument (Cytiva, Sweden). […] Sensorgrams were analyzed by Biacore T200 Evaluation Software 3.0 (Cytiva, Sweden): specific binding was obtained by subtracting unspecific binding to naked biosensors and a zero analyte concentration made of binding assay buffer (double referencing). […]

[3] = molecular target: T3, native huDLL3 on the surface of cells (CHO cells) (Homo sapiens, UniProt Q9NYJ7); assay: Flow cytometry competition with AF647-labelled peptide; assay type: cell-based; details: for efficiency in competing the binding of the AF647-labelled PepSP1146: compared with monomer PepSP1146
T3 construct: expressed in transfected cells; host or cells: CHO (CHO-huDLL3)
T3 sequence (Q9NYJ7 27-618): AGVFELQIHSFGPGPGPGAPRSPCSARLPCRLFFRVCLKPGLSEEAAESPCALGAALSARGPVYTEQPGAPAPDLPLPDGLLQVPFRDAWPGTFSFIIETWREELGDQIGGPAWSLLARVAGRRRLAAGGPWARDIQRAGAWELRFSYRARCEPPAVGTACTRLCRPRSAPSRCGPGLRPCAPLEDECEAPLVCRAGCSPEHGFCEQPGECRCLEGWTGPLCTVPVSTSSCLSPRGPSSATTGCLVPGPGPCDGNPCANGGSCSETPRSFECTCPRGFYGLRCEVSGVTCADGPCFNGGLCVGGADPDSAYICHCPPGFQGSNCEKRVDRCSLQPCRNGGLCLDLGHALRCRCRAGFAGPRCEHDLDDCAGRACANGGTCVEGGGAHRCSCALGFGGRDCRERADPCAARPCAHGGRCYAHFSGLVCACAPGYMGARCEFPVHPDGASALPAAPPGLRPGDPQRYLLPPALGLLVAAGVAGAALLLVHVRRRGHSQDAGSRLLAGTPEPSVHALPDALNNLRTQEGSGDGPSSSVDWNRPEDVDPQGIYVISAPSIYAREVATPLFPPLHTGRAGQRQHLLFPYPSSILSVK
Description: HEK293-huDLL3, CHO-huDLL3 and the corresponding parental cell lines were detached with EDTA 2.5 mM and re-suspended at 1.8×10^6 cells/ml in FACS buffer (1×PBS, 2% FBS), distributed at 500 μl per testing tube and pelleted 5 min at 1300 rpm in a Heraeus Multifuge […] centrifuge.

[4] = molecular target: T4, recombinant DLL3 ectodomain (rhDLL3-Fc) (Homo sapiens, UniProt Q9NYJ7); assay: Binding kinetic assay using Bio-layer interferometry (BLI)
T4 construct: The recombinant DLL3 ectodomain (rhDLL3-Fc) was biotinylated; Fc
T4 sequence (Q9NYJ7 27-492 limits assumed): T1 sequence (Q9NYJ7 27-492 limits assumed)

RT [1] | pKd [2] | koff [2] [s⁻¹] | kon [2] [M⁻¹ s⁻¹] | pIC50 [3] | efficiency in competing the binding of the AF647-labelled PepSP1146 [3] | binding mode to DLL3 ([4]; peptides at 20, 4 and 0.8 μM, fit to 1:1 Langmuir binding model) | affinity ([4]; wider dose-response 10×KD to 0.1×KD) | Compound
369 |  |  |  |  |  |  |  | CC(=O)N[C@@H](C)C(=O)N[C@@H](CCC(=O)O)C(=O)N[C@H](C(=O)N[C@H](C(=O)N[C@@H](CCC(=O)O)C(=O)N[C@@H](Cc1ccccc1)C(=O)N[C@@H](Cc1c[nH]c2ccccc12)C(=O)NCC(=O)N[C@H]1CSSC[C@@H](C(=O)N[C@@H](Cc2c[nH]c3ccccc23)C(=O)N[C@@H](Cc2c[nH]c3ccccc23)C(=O)NCC(=O)NCC(=O)NCCCOCCOCCOCCCNC(=O)CCC(=O)N[C@@H](CCCCN)C(N)=O)NC(=O)[C@H]([C@@H](C)O)NC(=O)[C@H](CCC(=O)O)NC(=O)[C@H](CC(N)=O)NC(=O)CNC(=O)[C@H](Cc2c[nH]c3ccccc23)NC(=O)[C@H]([C@@H](C)O)NC(=O)CNC(=O)[C@H]([C@@H](C)O)NC1=O)C(C)C)[C@@H](C)O [PepSP1321] (Ac-AETVEFWGCTGTWGNETCWWGG-X11; disulfide 9-18)
 | 8.52 | 0.00028 | 104000 | 8.00 | higher efficiency |  |  | CC(C)[C@H](NC(=O)[C@@H](NC(=O)[C@H](CCC(=O)O)NC(=O)[C@H](C)N)[C@@H](C)O)C(=O)N[C@@H](CCC(=O)O)C(=O)N[C@@H](Cc1ccccc1)C(=O)N[C@@H](Cc1c[nH]c2ccccc12)C(=O)NCC(=O)N[C@H]1CSSC[C@@H](C(=O)N[C@@H](Cc2c[nH]c3ccccc23)C(=O)N[C@@H](Cc2c[nH]c3ccccc23)C(=O)NCCCOCCOCCOCCCNC(=O)CCC(=O)N[C@@H](CCCCn2cc(COCCOCCOCCOCCOCCOCCOCCOCCOCCOCCOCCOCCOCCOCc3cn(CCCC[C@H](NC(=O)CCC(=O)NCCCOCCOCCOCCCNC(=O)[C@H](Cc4c[nH]c5ccccc45)NC(=O)[C@H](Cc4c[nH]c5ccccc45)NC(=O)[C@@H]4CSSC[C@H](NC(=O)CNC(=O)[C@H](Cc5c[nH]c6ccccc56)NC(=O)[C@H](Cc5ccccc5)NC(=O)[C@H](CCC(=O)O)NC(=O)[C@@H](NC(=O)[C@@H](NC(=O)[C@H](CCC(=O)O)NC(=O)[C@H](C)N)[C@@H](C)O)C(C)C)C(=O)N[C@@H]([C@@H](C)O)C(=O)NCC(=O)N[C@@H]([C@@H](C)O)C(=O)N[C@@H](Cc5c[nH]c6ccccc56)C(=O)NCC(=O)N[C@@H](CC(N)=O)C(=O)N[C@@H](CCC(=O)O)C(=O)N[C@@H]([C@@H](C)O)C(=O)N4)C(N)=O)nn3)nn2)C(N)=O)NC(=O)[C@H]([C@@H](C)O)NC(=O)[C@H](CCC(=O)O)NC(=O)[C@H](CC(N)=O)NC(=O)CNC(=O)[C@H](Cc2c[nH]c3ccccc23)NC(=O)[C@H]([C@@H](C)O)NC(=O)CNC(=O)[C@H]([C@@H](C)O)NC1=O [PepSP1271]
 | 8.52 | 0.00024 | 74300 | 7.82 | higher efficiency |  |  | CC(C)[C@H](NC(=O)[C@@H](NC(=O)[C@H](CCC(=O)O)NC(=O)[C@H](C)N)[C@@H](C)O)C(=O)N[C@@H](CCC(=O)O)C(=O)N[C@@H](Cc1ccccc1)C(=O)N[C@@H](Cc1c[nH]c2ccccc12)C(=O)NCC(=O)N[C@H]1CSSC[C@@H](C(=O)N[C@@H](Cc2c[nH]c3ccccc23)C(=O)N[C@@H](Cc2c[nH]c3ccccc23)C(=O)NCCCOCCOCCOCCCNC(=O)CCC(=O)N[C@@H](CCCCn2cc(COCCOCCOCCOCCOCCOCc3cn(CCCC[C@H](NC(=O)CCC(=O)NCCCOCCOCCOCCCNC(=O)[C@H](Cc4c[nH]c5ccccc45)NC(=O)[C@H](Cc4c[nH]c5ccccc45)NC(=O)[C@@H]4CSSC[C@H](NC(=O)CNC(=O)[C@H](Cc5c[nH]c6ccccc56)NC(=O)[C@H](Cc5ccccc5)NC(=O)[C@H](CCC(=O)O)NC(=O)[C@@H](NC(=O)[C@@H](NC(=O)[C@H](CCC(=O)O)NC(=O)[C@H](C)N)[C@@H](C)O)C(C)C)C(=O)N[C@@H]([C@@H](C)O)C(=O)NCC(=O)N[C@@H]([C@@H](C)O)C(=O)N[C@@H](Cc5c[nH]c6ccccc56)C(=O)NCC(=O)N[C@@H](CC(N)=O)C(=O)N[C@@H](CCC(=O)O)C(=O)N[C@@H]([C@@H](C)O)C(=O)N4)C(N)=O)nn3)nn2)C(N)=O)NC(=O)[C@H]([C@@H](C)O)NC(=O)[C@H](CCC(=O)O)NC(=O)[C@H](CC(N)=O)NC(=O)CNC(=O)[C@H](Cc2c[nH]c3ccccc23)NC(=O)[C@H]([C@@H](C)O)NC(=O)CNC(=O)[C@H]([C@@H](C)O)NC1=O [PepSP1270]
 |  |  |  | 7.12 |  | dose-response saturable binding | double-digit nM range | CC(C)[C@H](NC(=O)[C@@H](NC(=O)[C@H](CCC(=O)O)NC(=O)[C@H](C)N)[C@@H](C)O)C(=O)N[C@@H](CCC(=O)O)C(=O)N[C@@H](Cc1ccccc1)C(=O)N[C@@H](Cc1c[nH]c2ccccc12)C(=O)NCC(=O)N[C@H]1CSSC[C@@H](C(=O)N[C@@H](Cc2c[nH]c3ccccc23)C(=O)N[C@@H](Cc2c[nH]c3ccccc23)C(N)=O)NC(=O)[C@H]([C@@H](C)O)NC(=O)[C@H](CCC(=O)O)NC(=O)[C@H](CC(N)=O)NC(=O)CNC(=O)[C@H](Cc2c[nH]c3ccccc23)NC(=O)[C@H]([C@@H](C)O)NC(=O)CNC(=O)[C@H]([C@@H](C)O)NC1=O [PepSP1146]
 |  | 5.5e-05 | 90000 |  | higher efficiency |  |  | CCOCCOCCOCCOCc1cn(CCCC[C@@H]2CC(=O)C(CC(=O)NCCCOCCOCCOCCCNC(=O)[C@@H](Cc3c[nH]c4ccccc34)NC(=O)[C@@H](CC3=CCc4ccccc43)NC(=O)[C@H]3CSSC[C@@H](NC(=O)CNC(=O)[C@@H](Cc4c[nH]c5ccccc45)NC(=O)[C@@H](Cc4ccccc4)NC(=O)[C@@H](CCC(=O)O)NC(=O)[C@H](NC(=O)[C@H](NC(=O)[C@@H](CCC(=O)O)NC(=O)C(C)C)[C@H](C)O)C(C)C)C(=O)N[C@H]([C@H](C)O)C(=O)NCC(=O)C(C)[C@H]([C@H](C)O)C(=O)N[C@H](Cc4c[nH]c5ccccc45)C(=O)NCC(=O)N[C@H](CC(N)=O)C(=O)N[C@H](CCC(=O)O)C(=O)N[C@H]([C@H](C)O)C(=O)N3)NC2=O)nn1 (stereo partly drawn) [PepSP1272] (Isobutyryl-[dE][dT][dV][dE][dF][dW]G[dC][dT][X4][dW]G[dN][dE][dT][dC][X5][dW]-X6; disulfide 8-16)

Compound | RT [1] | pKd [2] | koff [2] [s⁻¹] | kon [2] [M⁻¹ s⁻¹] | pIC50 [3] | efficiency in competing the binding of the AF647-labelled PepSP1146 [3] | binding mode to DLL3 ([4]; peptides at 20, 4 and 0.8 μM, fit to 1:1 Langmuir binding model) | affinity ([4]; wider dose-response 10×KD to 0.1×KD)
AETVEFWSCVVYGDNWTCSS-CONH2 (AETVEFWSCVVYGDNWTCSS-NH2; disulfide 9-18 (inferred)) [PepSP1172] |  |  |  |  |  | most efficient binder |  | 
